Measured values reported in ChEMBL document CHEMBL1201862, “PubChem BioAssay data set” (2004).
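Cells were grown in 96-well plates and exposed to each compound for 48 hours at five concentrations; endpoints were interpolated linearly between bracketing concentrations, or set to the highest concentration if not reached. GI50 marks 50% less growth.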 Active and inactive are the calls of the source. Cut-off read from the data, not from the text of the source: active = GI50 up to about 1.1 µM and inactive = higher.

Assays:
Test in all cases: growth of human tumour cells (NCI), 48 h
A498 = system: A498
A549 = system: A549
BT-549 = system: BT-549
HCC 2998 = system: HCC 2998
HCT-116 = system: HCT-116
HOP-62 = system: HOP-62
HOP-92 = system: HOP-92
KM12 = system: KM12
LXFL 529 = system: LXFL 529
MDA-MB-231 = system: MDA-MB-231
Malme-3M = system: Malme-3M
NCI-H460 = system: NCI-H460
OVCAR-8 = system: OVCAR-8
RXF 393 = system: RXF 393
SK-OV-3 = system: SK-OV-3
SR = system: SR
SW-620 = system: SW-620
T47D = system: T47D
UACC-62 = system: UACC-62
SN12C = system: SN12C

Row | Structure (SMILES) | GI50 (A498) | GI50 (A549) | GI50 (BT-549) | GI50 (HCC 2998) | GI50 (HCT-116) | GI50 (HOP-62) | GI50 (HOP-92) | GI50 (KM12) | GI50 (LXFL 529) | GI50 (MDA-MB-231) | GI50 (Malme-3M) | GI50 (NCI-H460) | GI50 (OVCAR-8) | GI50 (RXF 393) | GI50 (SK-OV-3) | GI50 (SR) | GI50 (SW-620) | GI50 (T47D) | GI50 (UACC-62) | GI50 (SN12C)
1 | C/C(=N\NC(=S)N1CCC1)c1ccccn1 | 0.446 µM (active) | 0.0246 µM (active) | 11.5 µM (inactive) | 0.374 µM (active) | 0.01 µM (active) | 0.0181 µM (active) | 0.0443 µM (active) | 0.0287 µM (active) | 0.01 µM (active) | 0.0155 µM (active) | 0.175 µM (active) | < 0.0184 µM (active) | 0.01 µM (active) | 0.163 µM (active) | < 0.0131 µM (active) | 0.01 µM (active) | < 0.0103 µM (active) | 0.00137 µM (active) | < 0.016 µM (active) | –
2 | CC(=O)OC1COC(n2ccc3cc(Br)c([N+](=O)[O-])cc32)C(OC(C)=O)C1OC(C)=O (stereo unspecified) | 19.1 µM (inactive) | 27.8 µM (inactive) | – | 24 µM (inactive) | – | 30.5 µM (inactive) | 9.44 µM (inactive) | 34.2 µM (inactive) | 20 µM (inactive) | – | 24.2 µM (inactive) | 22 µM (inactive) | 22.4 µM (inactive) | 24.7 µM (inactive) | 31.8 µM (inactive) | 30.4 µM (inactive) | 39.5 µM (inactive) | – | 17.6 µM (inactive) | 30.8 µM (inactive)
3 | CN(C)CC1CCC(CN(C)C)C1=O (stereo unspecified) | 25.4 µM (inactive) | 18.7 µM (inactive) | – | 18 µM (inactive) | 2.27 µM (inactive) | > 52.5 µM (inactive) | 2.24 µM (inactive) | 10.3 µM (inactive) | 1.47 µM (inactive) | 2.07 µM (inactive) | 1.73 µM (inactive) | 20.8 µM (inactive) | 3.31 µM (inactive) | 4.19 µM (inactive) | 16.8 µM (inactive) | 2.6 µM (inactive) | 0.873 µM (active) | 1.39 µM (inactive) | 13.9 µM (inactive) | 6.89 µM (inactive)
4 | CCOC(=O)C(CNc1ccc(O)cc1)NC(=O)c1ccccc1 (stereo unspecified) | > 100 µM (inactive) | > 100 µM (inactive) | – | > 100 µM (inactive) | > 100 µM (inactive) | > 100 µM (inactive) | > 100 µM (inactive) | > 100 µM (inactive) | 77.3 µM (inactive) | – | > 100 µM (inactive) | > 100 µM (inactive) | > 100 µM (inactive) | > 100 µM (inactive) | > 100 µM (inactive) | > 61 µM (inactive) | > 100 µM (inactive) | – | > 53.7 µM (inactive) | > 100 µM (inactive)
5 | Cc1c2cc[n+](C)cc2c(C)c2c1oc1ccccc12 | 42.9 µM (inactive) | 1.95 µM (inactive) | 0.608 µM (active) | 2.75 µM (inactive) | 6.43 µM (inactive) | 2.06 µM (inactive) | 6.5 µM (inactive) | 1.62 µM (inactive) | 1.54 µM (inactive) | 12.9 µM (inactive) | 1.6 µM (inactive) | 3.24 µM (inactive) | 1.67 µM (inactive) | 15.2 µM (inactive) | 14.7 µM (inactive) | 4.85 µM (inactive) | 3 µM (inactive) | – | 5.62 µM (inactive) | 0.475 µM (active)
6 | S=c1sc2sc(=S)sc2s1 | 23.5 µM (inactive) | 31.6 µM (inactive) | – | > 100 µM (inactive) | 30.1 µM (inactive) | > 100 µM (inactive) | 57.9 µM (inactive) | > 100 µM (inactive) | 13.6 µM (inactive) | – | > 100 µM (inactive) | 22.4 µM (inactive) | 50.1 µM (inactive) | 35.6 µM (inactive) | 19.6 µM (inactive) | 29.1 µM (inactive) | > 100 µM (inactive) | – | 37.2 µM (inactive) | 96.8 µM (inactive)
7 | N#C/C(=C\c1cc(O)c(O)c(O)c1)C(N)=O | > 100 µM (inactive) | > 100 µM (inactive) | 97.5 µM (inactive) | > 100 µM (inactive) | > 70.1 µM (inactive) | > 87.3 µM (inactive) | 98.2 µM (inactive) | > 90.4 µM (inactive) | > 100 µM (inactive) | > 66.5 µM (inactive) | > 100 µM (inactive) | > 79.3 µM (inactive) | > 100 µM (inactive) | > 100 µM (inactive) | > 100 µM (inactive) | > 47.5 µM (inactive) | > 84.5 µM (inactive) | > 100 µM (inactive) | 72.6 µM (inactive) | > 84.3 µM (inactive)
8 | CCCCCCCCCCCCCC1CCC(CC)N1 (stereo unspecified) | 21.4 µM (inactive) | 20.8 µM (inactive) | – | 2.41 µM (inactive) | 15.6 µM (inactive) | 7.1 µM (inactive) | 16.2 µM (inactive) | 17.2 µM (inactive) | 18.2 µM (inactive) | – | 18.4 µM (inactive) | 2.12 µM (inactive) | 20 µM (inactive) | 17.9 µM (inactive) | 17 µM (inactive) | 18.9 µM (inactive) | 15.9 µM (inactive) | – | 6.98 µM (inactive) | 11.3 µM (inactive)
9 | CCN1CCC(O)(c2ccccc2)C(C(=O)c2ccccc2)C1 (stereo unspecified) | > 100 µM (inactive) | > 67.1 µM (inactive) | – | > 100 µM (inactive) | 17.1 µM (inactive) | > 100 µM (inactive) | 17.7 µM (inactive) | 45.4 µM (inactive) | 15.6 µM (inactive) | – | 21.1 µM (inactive) | > 100 µM (inactive) | 26.4 µM (inactive) | 15.5 µM (inactive) | > 100 µM (inactive) | 20.8 µM (inactive) | 17.6 µM (inactive) | – | > 45.3 µM (inactive) | 20.1 µM (inactive)
